Assay results from patent US8754079B2, “Cycloalkyl containing thienopyrimidines for pharmaceutical compositions” (Boehringer Ingelheim International GmbH, priority 2010, dated 2014).

target: T1, MNK2 (Homo sapiens, UniProt Q9HBH9); assay: Mnk2a in vitro kinase assay (indirect fluorescence polarization); assay type: biochemical; conditions: pre-activated GST-Mnk2a 2.5 nM, 20 μM ATP, 30 μM substrate peptide
T1 construct: the open reading frames of human Mnk1 and Mnk2a were amplified from cDNA; made in house; host or cells: E. coli BL21
T1 sequence (Q9HBH9 whole entry): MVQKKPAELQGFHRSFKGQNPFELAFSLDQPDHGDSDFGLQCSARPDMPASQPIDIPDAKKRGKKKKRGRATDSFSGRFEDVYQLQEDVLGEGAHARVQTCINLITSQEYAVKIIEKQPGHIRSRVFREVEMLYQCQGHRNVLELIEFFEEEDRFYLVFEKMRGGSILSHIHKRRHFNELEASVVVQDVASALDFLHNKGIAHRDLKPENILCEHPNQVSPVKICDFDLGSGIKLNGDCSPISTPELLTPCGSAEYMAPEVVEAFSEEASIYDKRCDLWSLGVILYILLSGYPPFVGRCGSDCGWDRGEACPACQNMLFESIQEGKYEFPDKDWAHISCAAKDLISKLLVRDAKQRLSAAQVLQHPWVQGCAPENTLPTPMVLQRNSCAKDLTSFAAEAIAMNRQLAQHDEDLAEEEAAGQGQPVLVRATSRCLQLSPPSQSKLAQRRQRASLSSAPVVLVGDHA
Method: Inhibitory potency of compounds against Mnk1, Mnk2a and other kinases was assessed with assays based on a format known to those skilled in the art as the indirect (competitive) fluorescence polarization. The assay detection system comprises a small fluorophore-labeled phospho-peptide (termed ligand) bound to a phospho-specific antibody. The product generated by the kinase reaction competes with the ligand for antibody binding. Based on the larger molecular volume of the bound ligand, which results in a lower rotation rate in solution, its emitted light has a higher degree of polarization than the one from the free ligand.
Example 2a. Mnk1 and Mnk2a in vitro kinase assay
As a source of enzyme, human Mnk1 and human Mnk2a were expressed as GST fusion proteins in E. coli, purified to >80% homogeneity by glutathione affinity chromatography and activated in vitro with pre-activated ERK2. In brief, the open reading frames of human Mnk1 and Mnk2a were amplified from cDNA using the forward/reverse primer pairs
(utilized restriction sites underlined), respectively, and cloned into the BamHI and SalI sites of the vector pGEX-4T1 (Amersham, Sweden, cat. no. 27-4580-01). These constructs allow prokaryotic expression of Mnk1 or Mnk2a as fusion protein with a N-terminal glutathione S-transferase (GST) tag, referred to as GST-Mnk1 or GSTMnk2a. The following expression and purification procedure was identical for GSTMnk1 and GST-Mnk2a, referring in general to GST-Mnk, when not distinguishing between the two isoforms. Expression of GST-Mnk was in E. coli BL21 (Merck Biosciences, Germany, cat. no. 69449). Cells were grown in LB-Bouillon (Merck, Germany, cat. no. 1.10285) supplemented with 100 μg/ml ampicillin (Sigma, Germany, cat. no. A9518) at 37° C. When the culture had reached a density corresponding to an A600 of 0.8, an equal volume of ice cold LB/ampicillin was added, the culture transferred to 25° C. and induced for 4 h with 1 mM isopropyl thiogalactoside (IPTG, Roth, Germany, cat. no. 2316.4). Cells harvested by centrifugation were resuspended in 10 ml lysis buffer (50 mM tris(hydroxymethyl)aminomethane hydrochloride (Tris/HCl, Sigma, Germany, cat. no. T5941) pH 7.5, 300 mM sodium chloride (NaCl, Sigma, Germany, cat. no. S7653), 5% (w/v) glycerol (Sigma, Germany, cat. no. G5516), 3 mM DTT dithiotreitol (DTT, Sigma, Germany, cat. no. D9779)) per gram wet weight cell pellet. Lysates were prepared by disruption of cells with a sonifier and subsequent clearing by centrifugation at 38000 g for 45 min at 4° C.
The lysate was applied to a GSTPrep FF 16/10 column (Amersham, Sweden, cat. no. 17-5234-01) equilibrated with lysis buffer. Removal of unbound material was with 3 column volumes (CV) lysis buffer. Elution was with 2 CV of elution buffer (50 mM Tris/HCl pH 7.5, 300 mM NaCl, 5% (w/v) glycerol, 20 mM glutathione (Sigma, Germany, cat. no. G4251)). Peak fractions were pooled and the protein transferred into storage buffer (50 mM Tris/HCl pH 7.5, 200 mM NaCl, 0.1 mM ethylene glycolbis(2-aminoethylether)-N,N,N′,N′-tetraacetic acid (EGTA, Aldrich, Germany, cat. no. 23, 453-2), 1 mM DTT, 10% (w/v) glycerol, 0.5 M sucrose (Sigma, Germany, cat. no. S0389) by gel filtration on a PD10 desalting column (Amersham, Sweden, cat. no. 17-0851-01). Aliquots were shock frozen in liquid nitrogen and stored at −80° C.
Activation of Mnk1 and Mnk2a was at a concentration of 2.5 μM of either purified GST-Mnk1 or GST-Mnk2a by incubation with 150 nM pre-activated NHis-ERK2 (see ERK2 assay for preparation) and 50 μM adenosine triphosphate (ATP, Sigma, cat. no. A2699) in a buffer comprising 20 mM N-(2-hydroxyethyl)piperazine-N′-(2-ethanesulfonic acid) (HEPES, Fluka, Germany, cat. no 54459)/potassium hydroxide (KOH, Roth, Germany, cat. no 6751.1) pH 7.4, 10 mM magnesium chloride (MgCl2, Sigma, Germany, cat. no. M2670), 0.25 mM DTT, 0.05% (w/v) polyoxyethylene 20 stearylether (Brij 78, Sigma, Germany, cat. no. P4019) (HMDB buffer) for 45 min at 30° C. […]

| SMILES | IC50 [nM] |
| --- | --- |
| Cc1c(C(=O)NCC#CCN)sc2ncnc(Nc3ccc(F)cc3O[C@@H]3CCC[C@@H](O)C3)c12 (racemic) [Example 60] | 14 |
| Cc1c(C(N)=O)sc2ncnc(Nc3ccc(F)cc3O[C@@H]3CCC[C@@H]3O)c12 (relative stereo) [Example 224] | 8 |
| CNC(=O)CNC(=O)c1sc2ncnc(Nc3cccnc3O[C@@H]3CCC[C@@H](OC)C3)c2c1C (racemic) [Example 137] | 105 |
| Cc1c(C(=O)NCCCCO)sc2ncnc(Nc3ccc(F)cc3O[C@@H]3CCC[C@@H](O)C3)c12 (racemic) [Example 61] | 26 |
| CO[C@H]1CCC[C@@H](Oc2cc(F)ccc2Nc2ncnc3sc(C(=O)NCCO)c(C)c23)C1 (racemic) [Example 101] | 21 |
| COC1CCCC(Oc2cc(F)ccc2Nc2ncnc3sc(C(=O)NC4CCN(C)CC4)c(C)c23)C1 (centres unmarked) [Example 102] | 34 |
| Cc1c(C(=O)NCCCN(C)C)sc2ncnc(Nc3ccc(F)cc3O[C@H]3CC[C@@H](O)CC3)c12 [Example 151, 4-[4-Fluoro-2-(cis-4-hydroxy-cyclohexyloxy)-phenylamino]-5-methyl-thieno[2,3-d]pyrimidine-6-carboxylic acid (3-dimethylamino-propyl)-amide] | 36 |
| CO[C@H]1CCCC[C@H]1Oc1cc(F)ccc1Nc1ncnc2sc(C(N)=O)c(C)c12 (racemic) [Example 55, Racemic 4-[4-Fluoro-2-(cis-2-methoxy-cyclohexyloxy)-phenylamino]-5-methyl-thieno[2,3-d]pyrimidine-6-carboxylic acid amide] | 59 |
| CC(=O)N[C@H]1C[C@H](Oc2cc(F)ccc2Nc2ncnc3sc(C(=O)N[C@H]4C[C@@H]4N)c(C)c23)C1 [Example 246, 4-[2-(trans-3-Acetylamino-cyclobutoxy)-4-fluoro-phenylamino]-5-methyl-thieno[2,3-d]pyrimidine-6-carboxylic acid (2-amino-cyclopropyl)-amide] | 65 |
| COC1CCCC(Oc2ncccc2Nc2ncnc3sc(C(=O)NCC#N)c(C)c23)C1 (centres unmarked) [Example 115] | 19 |
| COC(=O)N(C)[C@H]1CC[C@H](Oc2cc(F)ccc2Nc2ncnc3sc(C(N)=O)c(C)c23)CC1 [Example 11, Methyl trans-4-(2-(6-carbamoyl-5-methylthieno[2,3-d]pyrimidin-4-ylamino)-5-fluorophenoxy)cyclohexyl(methyl)carbamate] | 7 |
| Cc1c(C(N)=O)sc2ncnc(Nc3ccc(F)cc3O[C@@H]3CCC[C@@H](O)[C@H]3O)c12 (relative stereo) [Example 2] | 21 |
| Cc1c(C(=O)O)sc2ncnc(Nc3ccc(F)cc3O[C@H]3C[C@@H]4OCO[C@@H]4C3)c12 [Example 290, 4-[4-Fluoro-2-(tetrahydro-cyclopenta[1,3]dioxol-5-yloxy)phenylamino]-5-methyl-thieno[2,3-d]pyrimidine-6-carboxylic acid] | 8 |
| CN[C@H]1CCC[C@H](Oc2cc(F)ccc2Nc2ncnc3sc(C(N)=O)c(C)c23)C1 (relative stereo) [Example 18, 4-(4-Fluoro-2-(trans-3-(N-methylamino)cyclohexyloxy)phenylamino)-5-methylthieno[2,3-d]pyrimidine-6-carboxamide] | 36 |
| CO[C@@H]1CCC[C@@H](Oc2ncccc2Nc2ncnc3sc(C(=O)NCCN4CCCCC4)c(C)c23)C1 (racemic) [Example 145] | 68 |
| CO[C@H]1CCC[C@@H](Oc2cc(F)ccc2Nc2ncnc3sc(C(=O)NCC#CCN)c(C)c23)C1 (racemic) [Example 91] | 16 |
| CO[C@H]1CC[C@H](Oc2cc(F)ccc2Nc2ncnc3sc(C(=O)NCCCN4CCCC4=O)c(C)c23)CC1 [Example 279] | 11 |
| CNC(=O)c1sc2ncnc(Nc3cccnc3O[C@H]3CC[C@H](OC)CC3)c2c1C [Example 208] | 14 |

The remaining compounds from weak to strong by IC50, led by results:

| IC50 [nM] | SMILES |
| --- | --- |
| 9700 | Cc1c(C(N)=O)sc2ncnc(Nc3ccc(F)cc3O[C@H]3CC[C@@H](N4CCOCC4)CC3)c12 [Example 27, 4-(4-Fluoro-2-(cis-4-morpholinocyclohexyloxy)phenylamino)-5-methylthieno[2,3-d]pyrimidine-6-carboxamide] |
| 110 | Cc1c(C(=O)O)sc2ncnc(Nc3ccc(F)cc3O[C@@H]3CCCC[C@@H]3O)c12 (single isomer, unassigned) [Example 258, 4-[4-fluoro-2-(cis-2-hydroxy-cyclohexyloxy)-phenylamino]-5-methyl-thieno[2,3-d]pyrimidine-6-carboxylic acid] |
| 93 | COC1CCCC(Oc2cc(F)ccc2Nc2ncnc3sc(C(=O)NC4CCN(C)CC4)c(C)c23)C1 (centres unmarked) [Example 86] |
| 83 | CO[C@@H]1CCC[C@@H](Oc2ncccc2Nc2ncnc3sc(C(=O)NCCCO)c(C)c23)C1 (racemic) [Example 147] |
| 33 | CO[C@H]1CCC[C@@H](Oc2ncccc2Nc2ncnc3sc(C(=O)NCC4COCCN4)c(C)c23)C1 (relative stereo) [Example 120] |
| 33 | CNC(=O)CNC(=O)c1sc2ncnc(Nc3cccnc3O[C@@H]3CCC[C@H](OC)C3)c2c1C (racemic) [Example 116] |
| 31 | Cc1c(C(N)=O)sc2ncnc(Nc3ccc(F)cc3OC3CCC(=O)CC3)c12 [Example 21, 4-(4-Fluoro-2-(4-oxocyclohexyloxy)phenylamino)-5-methylthieno[2,3-d]pyrimidine-6-carboxamide] |
| 26 | Cc1c(C(=O)NCCCN2CCOCC2)sc2ncnc(Nc3ccc(F)cc3O[C@@H]3CCC[C@@H](O)C3)c12 (racemic) [Example 66] |
| 25 | CC(=O)N[C@H]1CC[C@H](Oc2cc(F)ccc2Nc2ncnc3sc(C(=O)NCCCN(C)C)c(C)c23)C1 [Example 237] |
| 24 | CCNC(=O)c1sc2ncnc(Nc3cccnc3O[C@@H]3CCC[C@H](OC)C3)c2c1C (racemic) [Example 130] |
| 23 | CO[C@H]1CC[C@H](Oc2cc(F)ccc2Nc2ncnc3sc(C(=O)N[C@H]4CC[C@H](O)CC4)c(C)c23)CC1 [Example 183] |
| 22 | CO[C@H]1CCC[C@@H](Oc2ncccc2Nc2ncnc3sc(C(=O)NCCCN4CCOCC4)c(C)c23)C1 (racemic) [Example 118] |
| 18 | Cc1c(C(=O)NCC2CNCCO2)sc2ncnc(Nc3ccc(F)cc3OC3CCCC(O)C3)c12 (mixture of isomers) [Example 67] |
| 17 | Cc1c(C(=O)NCCCCO)sc2ncnc(Nc3ccc(F)cc3O[C@H]3CC[C@H](O)CC3)c12 [Example 161] |
| 17 | Cc1c(C(=O)NCc2cnco2)sc2ncnc(Nc3ccc(F)cc3O[C@@H]3CCC[C@@H](O)C3)c12 (racemic) [Example 62] |
| 8 | Cc1c(C(=O)NCC#CCN(C)C)sc2ncnc(Nc3ccc(F)cc3O[C@H]3CC[C@H](O)CC3)c12 [Example 165] |
| 6 | CO[C@@H]1CCCC[C@H]1Oc1cc(F)ccc1Nc1ncnc2sc(C(N)=O)c(C)c12 [Example 249, 4-[4-Fluoro-2-((1R,2R)-2-methoxy-cyclohexyloxy)-phenylamino]-5-methyl-thieno[2,3-d]pyrimidine-6-carboxylic acid amide] |
